These results are taken from patent publication US4757069A, “Pyridazodiazepine derivatives” (Hoffmann-La Roche Inc., priority 1986, dated 1988).

This experiment concerns the target T1, Angiotensin converting enzyme (rabbit lung) (Oryctolagus cuniculus, UniProt P12822).
T1 construct: Angiotensin converting enzyme (rabbit lung); from tissue; host or cells: rabbit lung
T1 sequence (P12822 34-1310): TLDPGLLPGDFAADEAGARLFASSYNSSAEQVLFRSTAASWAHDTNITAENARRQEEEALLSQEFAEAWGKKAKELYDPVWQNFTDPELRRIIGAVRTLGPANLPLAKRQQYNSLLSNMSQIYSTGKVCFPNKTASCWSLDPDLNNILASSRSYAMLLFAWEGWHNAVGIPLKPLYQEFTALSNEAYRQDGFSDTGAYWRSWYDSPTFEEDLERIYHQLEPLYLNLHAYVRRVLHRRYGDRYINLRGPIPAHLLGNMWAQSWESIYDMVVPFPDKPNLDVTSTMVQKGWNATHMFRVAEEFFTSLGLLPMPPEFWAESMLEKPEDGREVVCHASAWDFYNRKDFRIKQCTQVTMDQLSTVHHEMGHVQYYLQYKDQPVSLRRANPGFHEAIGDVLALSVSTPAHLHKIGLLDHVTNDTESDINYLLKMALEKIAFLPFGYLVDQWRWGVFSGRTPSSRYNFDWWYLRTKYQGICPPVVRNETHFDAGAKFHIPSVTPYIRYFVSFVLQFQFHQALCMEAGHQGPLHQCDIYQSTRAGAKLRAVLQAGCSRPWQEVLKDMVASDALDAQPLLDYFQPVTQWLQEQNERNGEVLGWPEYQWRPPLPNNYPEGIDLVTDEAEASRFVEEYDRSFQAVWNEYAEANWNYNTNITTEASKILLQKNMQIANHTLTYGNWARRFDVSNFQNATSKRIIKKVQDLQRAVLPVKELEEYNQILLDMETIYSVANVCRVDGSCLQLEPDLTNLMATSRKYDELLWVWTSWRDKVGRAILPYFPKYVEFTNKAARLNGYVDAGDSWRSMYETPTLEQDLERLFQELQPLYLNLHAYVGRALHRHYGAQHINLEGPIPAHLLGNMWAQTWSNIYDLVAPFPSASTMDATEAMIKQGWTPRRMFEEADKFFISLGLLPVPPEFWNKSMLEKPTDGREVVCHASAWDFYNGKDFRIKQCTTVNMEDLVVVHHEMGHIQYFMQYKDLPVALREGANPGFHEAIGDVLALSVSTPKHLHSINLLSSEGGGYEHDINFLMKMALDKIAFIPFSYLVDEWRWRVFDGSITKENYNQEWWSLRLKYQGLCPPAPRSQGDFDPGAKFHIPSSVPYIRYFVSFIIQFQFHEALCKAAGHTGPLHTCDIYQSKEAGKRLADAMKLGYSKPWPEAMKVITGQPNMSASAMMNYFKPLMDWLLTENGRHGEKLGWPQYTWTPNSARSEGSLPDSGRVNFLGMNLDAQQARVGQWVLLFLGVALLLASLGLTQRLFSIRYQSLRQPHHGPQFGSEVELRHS
Briefly: Inhibition of angiotensin-converting enzyme in vitro (conversion of angiotensin I into angiotensin II, fluorescence). Conditions: rabbit lung ACE; 90 min preincubation at 37° C., pH 7.5; angiotensin I 250 μmol; 30 min reaction; read-out: IC50 (concentration of test substance which reduces by 50% the conversion of angiotensin I into angiotensin II). Type of experiment: biochemical. On the procedure: The activity of the present pyridazodiazepine derivatives in inhibiting angiotensin-converting enzyme in vitro can be determined using the test now described.
The method used is based on the method of Santos, R. A. S., Kreiger, E. M., and Greene L. J., Hypertension (1985), 7, 244-252. Angiotensin converting enzyme (rabbit lung) is incubated in the presence or absence of various concentrations of a test substance for 90 minutes at 37° C. in 0.1M potassium phosphate buffer, pH 7.5, containing 30 mmol of sodium chloride. If the test substance is an ester, it is cleaved by treatment with hog liver esterase prior to carrying out the test. The reaction is initiated by adding angiotensin I to a final concentration of 250 μmol. The final volume of the reaction mixture is 0.25 ml. After holding the reaction mixture at 37° C. for 30 minutes the reaction is terminated by adding 1.45 ml of 0.3M sodium hydroxide solution. […] of a 0.2% (weight/volume) solution of o-phthaldialdehyde in methanol are added and, after 10 minutes, the solution is acidified with 200 μl of 3M hydrochloric acid. The resulting solution is then subjected to fluorescence spectrometry using excitation and emission wavelengths of 365 nm and 500 nm, respectively, and the IC50 value is calculated. The IC50 is that concentration of test substance which reduces by 50% the conversion of angiotensin I into angiotensin II.

Structures can show the parent of a compound that is named as a salt.

Turning to `N=C(N)Nc1ccc(CC[C@H](N[C@H]2CCCN3CCC[C@@H](C(=O)O)N3C2=O)C(=O)O)cc1` [Example 1, 9(S)-[1(S)-carboxy-3-(4-guanidinophenyl)propylamino]-octahydro-10-oxo-6H-pyridazo[1,2-a][1,2]diazepine-1(S)-carboxylic acid dihydrobromide], the IC50 was determined as 0.6 nM.
